The results in this text go back to ChEMBL document CHEMBL1156326, “Novel N-substituted benzimidazole CXCR4 antagonists as potential anti-HIV agents” (Bioorg Med Chem Lett, 2010).

The structures appear in SMILES notation. A value given as a limit tells only on which side of the number the result lay.

Series [1] relates to Human immunodeficiency virus 1. As to the kind of experiment: Antiviral activity against HIV1 3B infected in human HOS cells expressing human CXCR4/CCR5/CD4 and HIV-LTR-luciferase. Particulars: Human immunodeficiency virus 1, 3B; call rule not given here. It is filed as functional, organism-based.
A short description of series [2]: Cytotoxicity against human HOS cells. It is filed as cell-based.
Series [3] concerns Human immunodeficiency virus 1. Briefly: Antiviral activity against HIV1 3B infected in human HOS cells expressing human CXCR4/CCR5/CD4 and HIV-LTR-luciferase assessed as change in concentration at which 50 % efficacy is observed in presence of human serum albumin and alpha acid glycoprotein. It is filed as functional.
Series [4] addresses C-X-C chemokine receptor type 4 (Homo sapiens, UniProt P61073). As to the kind of experiment: Inhibition of human CXCR4.
A short description of series [5]: Half life in rat at 1 mg/kg, iv. It is filed as ADME, organism-based. Details: dose 1 mg/kg, route intravenous. To be noted: in vivo.
Series [6] is described as follows: Clearance in rat at 1 mg/kg, iv. It is filed as ADME, organism-based. Also on record: dose 1 mg/kg, route intravenous. To be noted: in vivo.
Series [7] is described as follows: Oral bioavailability in rat at 3 mg/kg. It is filed as ADME, organism-based. To be noted: in vivo.
The nature of series [8]: Half life in dog at 1 mg/kg, iv. It is filed as ADME, organism-based, Canis lupus familiaris. Details: dose 1 mg/kg, route intravenous. Particulars: in vivo.
Series [9] can be described thus: Clearance in dog at 1 mg/kg, iv. It is filed as ADME, organism-based, Canis lupus familiaris. Details: dose 1 mg/kg, route intravenous. Particulars: in vivo.
A short description of series [10]: Oral bioavailability in dog at 3 mg/kg. It is filed as ADME, organism-based, Canis lupus familiaris. To be noted: in vivo.
In series [11] the target is Voltage-gated inwardly rectifying potassium channel KCNH2 (Homo sapiens, UniProt Q12809). As to the kind of experiment: Binding affinity to human ERG.
Sequence of Voltage-gated inwardly rectifying potassium channel KCNH2 (Q12809 whole entry): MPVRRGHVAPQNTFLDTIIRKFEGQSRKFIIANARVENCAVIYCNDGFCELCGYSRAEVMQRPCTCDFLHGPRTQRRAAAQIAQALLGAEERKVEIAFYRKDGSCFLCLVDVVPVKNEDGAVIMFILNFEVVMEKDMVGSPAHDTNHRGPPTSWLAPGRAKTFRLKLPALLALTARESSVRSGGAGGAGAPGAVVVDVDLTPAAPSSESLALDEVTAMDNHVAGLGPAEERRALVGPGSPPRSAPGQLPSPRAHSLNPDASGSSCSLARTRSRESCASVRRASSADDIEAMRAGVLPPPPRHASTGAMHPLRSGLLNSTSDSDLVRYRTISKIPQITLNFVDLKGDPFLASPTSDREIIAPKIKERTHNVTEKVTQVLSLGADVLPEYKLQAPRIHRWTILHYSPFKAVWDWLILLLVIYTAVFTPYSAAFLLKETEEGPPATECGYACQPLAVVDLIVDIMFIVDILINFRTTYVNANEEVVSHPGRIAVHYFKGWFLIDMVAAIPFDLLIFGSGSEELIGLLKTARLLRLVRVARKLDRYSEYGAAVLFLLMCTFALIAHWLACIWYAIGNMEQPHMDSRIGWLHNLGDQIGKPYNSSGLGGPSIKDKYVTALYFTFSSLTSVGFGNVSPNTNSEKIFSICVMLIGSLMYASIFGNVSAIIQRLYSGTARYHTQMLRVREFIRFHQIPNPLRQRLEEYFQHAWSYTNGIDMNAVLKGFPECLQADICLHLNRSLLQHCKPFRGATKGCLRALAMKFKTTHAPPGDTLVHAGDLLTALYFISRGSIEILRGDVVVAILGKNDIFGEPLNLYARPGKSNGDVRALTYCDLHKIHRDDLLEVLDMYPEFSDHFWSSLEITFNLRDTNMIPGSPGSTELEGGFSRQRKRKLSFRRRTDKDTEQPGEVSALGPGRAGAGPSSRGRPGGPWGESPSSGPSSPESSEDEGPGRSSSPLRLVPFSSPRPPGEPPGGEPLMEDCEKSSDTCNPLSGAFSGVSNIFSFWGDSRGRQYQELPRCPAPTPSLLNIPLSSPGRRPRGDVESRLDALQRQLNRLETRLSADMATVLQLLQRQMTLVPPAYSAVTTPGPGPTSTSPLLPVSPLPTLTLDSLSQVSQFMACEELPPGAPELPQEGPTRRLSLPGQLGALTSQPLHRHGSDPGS

Sequence of C-X-C chemokine receptor type 4 (P61073 whole entry): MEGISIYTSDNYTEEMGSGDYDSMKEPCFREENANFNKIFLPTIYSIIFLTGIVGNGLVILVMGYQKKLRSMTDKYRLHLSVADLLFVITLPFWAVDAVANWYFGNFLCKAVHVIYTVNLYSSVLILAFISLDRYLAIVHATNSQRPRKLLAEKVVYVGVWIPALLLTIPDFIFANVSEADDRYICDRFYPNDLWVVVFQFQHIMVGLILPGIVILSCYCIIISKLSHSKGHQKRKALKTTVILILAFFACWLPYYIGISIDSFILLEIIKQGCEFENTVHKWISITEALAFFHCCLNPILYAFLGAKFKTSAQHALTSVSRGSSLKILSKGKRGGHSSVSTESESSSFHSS

As to `CN(Cc1nc2ccccc2n1CC1CNC1)C1CCCc2cccnc21` (stereo not drawn), 0.084 µM corresponded to half-maximal inhibition in series [1] (IC50). The compound also registered a CC50 in series [2] of 15 µM.

On to `CN1CCCC(Cn2c(CN(C)C3CCCc4cccnc43)nc3ccccc32)C1` (stereo not drawn), for which 0.019 µM corresponded to half-maximal inhibition in series [1] (IC50). This compound returned a CC50 in series [2] of 3 µM.

For `CN1CCC(Cn2c(CN(C)C3CCCc4cccnc43)nc3ccccc32)C1` (stereo not drawn), the IC50 in [1] amounted to 0.057 µM. In [2], this compound registered a CC50 of 15 µM.

`CC(C)CCN1CCC[C@H](Cn2c(CN(C)[C@H]3CCCc4cccnc43)nc3ccccc32)C1` displayed an IC50 in series [1] of 0.015 µM. In series [2], this compound showed a CC50 of 2.3 µM. The “fold change (FC)” value in series [3] is recorded as 5.1.

Turning to `CN1CC(Cn2c(CN(C)C3CCCc4cccnc43)nc3ccccc32)C1` (stereo not drawn), the IC50 in [1] was determined as 0.066 µM. Besides, the CC50 in [2] amounted to 14 µM.

As for `CN(Cc1nc2ccccc2n1C[C@H]1CCCN(Cc2cccnc2)C1)[C@H]1CCCc2cccnc21`, the IC50 in [1] turned out to be 0.033 µM. This compound also gave a CC50 in series [2] of 2.5 µM. Further, in [3], the “fold change (FC)” value worked out at 8.7.

In series [1], `CN(Cc1nc2ccccc2n1CC1CCCNC1)C1CCCc2cccnc21` (stereo not drawn) returned an IC50 of 0.051 µM. For the same compound, the CC50 in series [2] stood at 15 µM.

As for `CN(Cc1nc2ccccc2n1CC1CCNC1)C1CCCc2cccnc21` (stereo not drawn), the IC50 in [1] worked out at 0.024 µM. In addition, half-maximal cytotoxicity in series [2] (CC50) was put at 7.7 µM.

With `CN(Cc1nc2ccccc2n1CCC1CCCCN1)C1CCCc2cccnc21` (stereo not drawn), in series [1], the IC50 was 0.064 µM. Moreover, the CC50 in series [2] was 8.3 µM.

For `CN1CCCCC1CCn1c(CN(C)C2CCCc3cccnc32)nc2ccccc21` (stereo not drawn), 0.033 µM corresponded to half-maximal inhibition in series [1] (IC50). This compound also came in with a CC50 in series [2] of 4.9 µM.

As to `CN(Cc1nc2ccccc2n1C1CCNCC1)C1CCCc2cccnc21` (stereo not drawn), in [1], half-maximal inhibition (IC50) was put at 0.099 µM. Also, in series [2], the CC50 came to 13 µM.

For the compound `CN1CCC(n2c(CN(C)C3CCCc4cccnc43)nc3ccccc32)CC1` (stereo not drawn), the IC50 was determined as 0.095 µM in series [1] and 0.076 µM in series [4]. The CC50 in series [2] was determined as 16 µM.

Compound `CN1CCC[C@H](Cn2c(CN(C)[C@H]3CCCc4cccnc43)nc3ccccc32)C1` had an IC50 in [1] of 0.006 µM. The same compound yielded a 50% cytotoxic concentration (CC50) in [2] of 3.6 µM. The “fold change (FC)” value in series [3] is recorded as 10.

With `CN1CCC[C@@H](Cn2c(CN(C)[C@H]3CCCc4cccnc43)nc3ccccc32)C1`, the IC50 in series [1] stood at 0.021 µM. This compound also gave a CC50 in series [2] of 3.5 µM.

`CN1CCC[C@H](Cn2c(CN(C)[C@@H]3CCCc4cccnc43)nc3ccccc32)C1` yielded an IC50 in series [1] of 0.21 µM. In [2], this compound yielded a CC50 of 3.6 µM.

As to `CC(C)CN1CCC[C@H](Cn2c(CN(C)[C@H]3CCCc4cccnc43)nc3ccccc32)C1`, in [1], the IC50 is 0.0081 µM. The CC50 in series [2] is above 2 µM. The “fold change (FC)” value in series [3] came to 6.2.

Compound `CN1CCC[C@@H](Cn2c(CN(C)[C@@H]3CCCc4cccnc43)nc3ccccc32)C1` had an IC50 in series [1] of 0.5 µM. The compound further yielded a CC50 in series [2] of 2.8 µM.

`CN(Cc1nc2ccccc2n1C[C@H]1CCCNC1)[C@H]1CCCc2cccnc21` yielded an IC50 in series [1] of 0.008 µM. Further, the midpoint of cytotoxicity in [2], the CC50, lay at 3.5 µM. Besides, the “fold change (FC)” value in series [3] is recorded as 1.2.

Turning to `CC(C)N1CCC[C@H](Cn2c(CN(C)[C@H]3CCCc4cccnc43)nc3ccccc32)C1`, the IC50 in series [1] was determined as 0.002 µM; in series [4], 0.0045 µM. This compound yielded a CC50 in series [2] of 2.1 µM. In addition, the half-life in series [5] was 5.8 h; in series [8], 11 h. Moreover, the clearance in series [6] worked out at 8.5 mL/min/kg; in series [9], 9.4 mL/min/kg. The bioavailability in [7] was 11%; in series [10] it was 22%. For the same compound, in series [11], the result was Active. Besides, in [3], the “fold change (FC)” value was found to be 2.

Take `CN(Cc1nc2ccccc2n1C[C@H]1CCCN(CCO)C1)[C@H]1CCCc2cccnc21`: half-maximal inhibition in [1] (IC50) was put at 0.012 µM. Also, in series [2], the CC50 was 2.5 µM. Further, in series [3], the “fold change (FC)” value was found to be 9.1.

For the compound `CN(Cc1nc2ccccc2n1CCCN)C1CCCc2cccnc21` (stereo not drawn), the CC50 in series [2] was 9.6 µM. Half-maximal inhibition in [4] (IC50) required 0.047 µM.

For orientation: IC50 means the concentration that gives 50% inhibition. High values mean weaker potency in that assay, low ones greater potency in that assay. A word on the CC50: it is the concentration that lowers cell viability or growth by half. A high value points to better tolerance by the cells. The half-life is how long it takes for the measured level to halve. As a reminder, the clearance is the rate of elimination divided by the concentration. What is called bioavailability is the share of a dose that reaches the circulation, judged against a reference dose that is usually intravenous. Lower therefore signals poor availability.
